Where two headings read alike, the source gives them in different places.
Assays:
[1] = target: T1, Cdk12/CycK (Homo sapiens, UniProt Q9NYV4); test: radioactive in vitro kinase assay, Cdk12/CycK; type: biochemical; settings: 0, 0.1, 1, 10, 100 μM compound, 0.2 μM Cdk12, 0.2 mM ATP, His-c-Myc, 20 min
T1 construct: GST (TEV site) (N, cleaved yes); made in house; host or cells: Sf9 insect cells, co-expressed with S. cerevisiae CAK1
Experimental: (§1) To a concentration of 0.2 μM kinase and 0.2 mM ATP, a compound concentration ranging from 0.1 nM to 1 mM was applied. Kinase reactions were started by the addition of 100 μM CTD peptide containing three hepta-repeats continuously prephosphorylated at position S7 (pS7-CTD[3]) and terminated after 60 min incubation time. In vitro IC50-values were determined by applying a sigmoidal fit to dose-response measurements (Fig. 1A).
Cdk12 kinase (0.2 μM) in the presence of 0.2 mM ATP were supplemented with respective compounds at concentrations of 0, 0.1, 1, 10, and 100 μM for 5 min. Upon addition of 50 μM His-c-Myc substrate the kinase assay reaction was conducted for 20 min.
Radioactive kinase activity assays were performed in a total volume of 15 μl per sample in kinase assay buffer (50 mM Hepes/pH 7.6, 34 mM KCl, 7 mM MgCl2, 5 mM β-glycerol phosphate, and 2.5 mM dithioerythritol). Preincubation of 0.2 μM or 0.02 μM recombinant protein kinase with indicated concentrations of respective inhibitor and 0.2 to 2 mM ATP containing 0.45 mCi [^32P]-γ-ATP/ml (PerkinElmer) was carried out for 5 min. Kinase reactions were started by addition of substrate protein (10 μM GST-Rb1 for Cdk4/CycD3, 10 μM GST-CTD[52] for Cdk7/CycH/MAT1, 50 μM His-c-Myc for all others) and incubated for 20 min at 30 °C in a shaking incubator at 300 rpm. For pS7-CTD[3] peptide, the substrate concentration was increased to 100 μM and assays were performed for 60 min. Reactions were terminated by the addition of EDTA to a final concentration of 50 mM. Reaction samples were separately spotted onto Amersham Protran nitrocellulose membranes (GE HealthCare) and subsequently washed three times for 5 min in PBS. Samples were transferred to 4 ml liquid scintillation vials and 2 ml liquid scintillator (Ultima Gold) were added. Radioactive counts were determined in a Beckman Liquid Scintillation Counter (Beckman Coulter) for 1 min. […] For analysis of dose response measurements and IC50 value determination, data of inhibitor-supplemented samples were normalized to DMSO solvent controls and their activity plotted against the inhibitor concentration. IC50 values were extracted from triplicate measurements by sigmoidal curve fitting using DataGraph (v. 5.0; https://www.visualdatatools.com/DataGraph/) or were determined by applying the Morrison quadratic equation for tight binding inhibitors using GraphPad Prism 10 (https://www.graphpad.com/) ([40]).

[2] = target: T2, Cdk13/CycK (Homo sapiens, UniProt Q14004); test: radioactive in vitro kinase assay, Cdk13/CycK; type: biochemical
T2 construct: The kinase domain of human Cdk13 (residues 694–1039, UniProt Q14004); made in house; host or cells: Sf9 insect cells, co-expressed with CAK1
Experimental: as §1, with “1A). […] The Michaelis–Menten constants (KM) for ATP were determined as 17.5 μM for Cdk12/CycK and 12.6 μM for Cdk13/CycK, respectively. […] These values are in accordance with the values derived from sigmoidal curve fitting.” for “1A).”
Radioactive kinase activity assays were performed in a total volume of 15 μl per sample in kinase assay buffer (50 mM Hepes/pH 7.6, 34 mM KCl, 7 mM MgCl2, 5 mM β-glycerol phosphate, and 2.5 mM dithioerythritol). […] Radioactive counts were determined in a Beckman Liquid Scintillation Counter (Beckman Coulter) for 1 min. […] IC50 values were extracted from triplicate measurements by sigmoidal curve fitting using DataGraph (v. 5.0; https://www.visualdatatools.com/DataGraph/) or were determined by applying the Morrison quadratic equation for tight binding inhibitors using GraphPad Prism 10 (https://www.graphpad.com/) ([40]).

[3] = tested on: T3, Cdk7/CycH; test: radioactive in vitro kinase assay, Cdk7/CycH; type: biochemical, human; settings: 0, 0.1, 1, 10, 100 μM compound, 0.2 μM kinase, 0.2 mM ATP
T3 construct: Full-length, human, WT Cdk7 (residues 1–346, UniProt P50613); made in house; host or cells: Sf9 insect cells
Experimental: (§2) Radioactive kinase activity assays were performed in a total volume of 15 μl per sample in kinase assay buffer (50 mM Hepes/pH 7.6, 34 mM KCl, 7 mM MgCl2, 5 mM β-glycerol phosphate, and 2.5 mM dithioerythritol). Preincubation of 0.2 μM or 0.02 μM recombinant protein kinase with indicated concentrations of respective inhibitor and 0.2 to 2 mM ATP containing 0.45 mCi [^32P]-γ-ATP/ml (PerkinElmer) was carried out for 5 min. Kinase reactions were started by addition of substrate protein (10 μM GST-Rb1 for Cdk4/CycD3, 10 μM GST-CTD[52] for Cdk7/CycH/MAT1, 50 μM His-c-Myc for all others) and incubated for 20 min at 30 °C in a shaking incubator at 300 rpm. For pS7-CTD[3] peptide, the substrate concentration was increased to 100 μM and assays were performed for 60 min. Reactions were terminated by the addition of EDTA to a final concentration of 50 mM. […] Radioactive counts were determined in a Beckman Liquid Scintillation Counter (Beckman Coulter) for 1 min. […] IC50 values were extracted from triplicate measurements by sigmoidal curve fitting using DataGraph (v. 5.0; https://www.visualdatatools.com/DataGraph/) or were determined by applying the Morrison quadratic equation for tight binding inhibitors using GraphPad Prism 10 (https://www.graphpad.com/) ([40]).

[4] = tested on: T4, Cdk4/CycD3; test: radioactive in vitro kinase assay, Cdk4/CycD3; type: biochemical, human; settings: 0, 0.1, 1, 10, 100 μM compound, 0.2 μM kinase, 0.2 mM ATP
T4 construct: GST (of the complex); made in house; host or cells: Sf9 insect cells
Experimental: as §2

[5] = tested on: T5, DYRK1A; test: radioactive in vitro kinase assay, DYRK1A; type: biochemical, human; settings: 0, 0.1, 1, 10, 100 μM compound, 0.2 μM kinase, 0.2 mM ATP
T5 construct: The kinase domain of human DYRK1A (residues 126–485, UniProt Q13627); made in house; host or cells: E. coli BL21 pLysS
Experimental: as §2

[6] = tested on: T6, HIPK2; test: radioactive in vitro kinase assay, HIPK2; type: biochemical, human; settings: 0, 0.1, 1, 10, 100 μM compound, 0.2 μM kinase, 0.2 mM ATP
T6 construct: human HIPK2 (residues 160–563, UniProt Q9H2X6); made in house; host or cells: Sf9 insect cells
Experimental: as §2

[7] = tested on: T7, HIPK3; test: radioactive in vitro kinase assay, HIPK3; type: biochemical, human; settings: 0, 0.1, 1, 10, 100 μM compound, 0.2 μM kinase, 0.2 mM ATP
T7 construct: human HIPK3 (residues 159–562, UniProt Q9H422); made in house; host or cells: Sf9 insect cells
Experimental: as §2

[8] = target: T1, Cdk12/CycK; test: nanoDSF thermal protein stability, Cdk12/CycK; type: binding; settings: 5 μM protein
Experimental: (§3) At 10 μM concentration, the thermal shift observed was +4.7 °C, while at 100 μM the thermal stability was increased by +6.2 °C (Table S2) compared to a DMSO control. Together, the results obtained from both SPR and nanoDSF measurements align well with the IC50 values determined for Cdk12∗/CycK and Cdk13∗/CycK kinases.
(§4) For identification of thermal protein stability, nanoDSF experiments were conducted using a Prometheus NT.48 (NanoTemper) instrument. […] at the wavelengths λ = 330 and 350 nm were monitored at an excitation power of 25% in a temperature range from 20 to 90 °C with a slope of 1.5 °C/min. The measurement was conducted and evaluated with the PR.ThermControl software (https://nanotempertech.com/prometheus/nt48-software/). Experiments were conducted in duplicates.

[9] = target: T2, Cdk13/CycK; test: nanoDSF thermal protein stability, Cdk13/CycK; type: binding; settings: 5 μM protein
Experimental: as §3, §4

T1 sequence (Q9NYV4 714-1063): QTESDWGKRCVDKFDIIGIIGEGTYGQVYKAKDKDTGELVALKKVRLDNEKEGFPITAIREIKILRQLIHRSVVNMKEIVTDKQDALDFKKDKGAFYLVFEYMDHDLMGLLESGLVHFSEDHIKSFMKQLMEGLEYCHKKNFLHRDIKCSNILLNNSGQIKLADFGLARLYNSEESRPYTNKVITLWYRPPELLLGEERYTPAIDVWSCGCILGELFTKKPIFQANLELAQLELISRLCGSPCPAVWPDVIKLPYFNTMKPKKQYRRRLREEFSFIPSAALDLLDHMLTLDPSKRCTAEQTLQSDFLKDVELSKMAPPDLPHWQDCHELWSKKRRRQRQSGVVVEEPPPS
T1 sequence (O75909 1-267 partner limits assumed): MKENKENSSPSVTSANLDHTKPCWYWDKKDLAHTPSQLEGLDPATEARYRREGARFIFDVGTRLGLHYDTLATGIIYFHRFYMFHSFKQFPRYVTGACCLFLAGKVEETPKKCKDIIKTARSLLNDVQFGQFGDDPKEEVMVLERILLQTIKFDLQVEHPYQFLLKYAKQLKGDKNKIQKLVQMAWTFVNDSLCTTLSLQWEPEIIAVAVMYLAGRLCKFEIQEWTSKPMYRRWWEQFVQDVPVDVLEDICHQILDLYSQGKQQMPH
T2 sequence (Q14004 694-1039): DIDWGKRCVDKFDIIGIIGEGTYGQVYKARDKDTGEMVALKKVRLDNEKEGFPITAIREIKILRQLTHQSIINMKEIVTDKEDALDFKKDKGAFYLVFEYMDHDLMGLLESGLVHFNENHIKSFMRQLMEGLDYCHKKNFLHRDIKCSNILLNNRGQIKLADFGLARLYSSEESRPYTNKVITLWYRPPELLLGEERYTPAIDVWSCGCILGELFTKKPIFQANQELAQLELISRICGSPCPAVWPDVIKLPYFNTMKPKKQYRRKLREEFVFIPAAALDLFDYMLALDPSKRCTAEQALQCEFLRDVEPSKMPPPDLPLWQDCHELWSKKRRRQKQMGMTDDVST
T2 sequence (O75909 1-267 partner limits assumed): as the sequence (O75909 1-267 partner limits assumed) above

SMILES: Cn1cc(-n2cnc3c(NCc4nc5cc(Cl)c(Cl)cc5[nH]4)nc(N4CCOCC4)nc32)cn1 [SR-4835]
- inhibitory effect on Cdk12/CycK activity, in words [1]: modest effects
- IC50 ([2]; 0.2 μM and 0.02 μM kinase, c-Myc substrate, Morrison quadratic equation fit, read-out: IC50 Cdk13/CycK, Morrison quadratic equation): 366 to 400 nM
- IC50 ([2]; 0.2 μM kinase, 0.2 mM ATP, 100 μM pS7-CTD[3], 60 min, sigmoidal fit, read-out: IC50 Cdk13/CycK on pS7-CTD[3]): 366 nM
- inhibition of Cdk7 activity [3]: no inhibitory activity
- inhibition of Cdk4/CycD3 activity [4]: minimal decrease in kinase activity
- inhibition of DYRK1A activity [5]: not inhibited
- inhibition of HIPK2 activity [6]: not inhibited
- inhibition of HIPK3 activity [7]: not inhibited
- Tm, Cdk12/CycK ([8]; 1 μM compound): 51.45 °C
- ∆Tm to DMSO control, Cdk12/CycK ([8]; 1 μM compound): +0.80 °C
- Tm, Cdk12/CycK ([8]; 10 μM compound): 58.70 °C
- Tm, Cdk12/CycK ([8]; 100 μM compound): 60.45 °C
- Tm, Cdk13/CycK ([9]; 1 μM compound): 54.40 °C
- ∆Tm to DMSO control, Cdk13/CycK ([9]; 1 μM compound): +0.25 °C
- Tm, Cdk13/CycK ([9]; 10 μM compound): 58.80 °C
- Tm, Cdk13/CycK ([9]; 100 μM compound): 60.30 °C

Source: PMC10767194 (The Journal of Biological Chemistry, 2023)
